From the NIST ThermoML archive (doi:10.1016/j.jct.2015.11.016)
± gives the expanded uncertainty stated by the source.

Legend:
[1] = xn = mol fraction of the nth substance listed; conditions: 298.15 K, 100 kPa, Liquid, Vibrating tube method
[2] = 298.15 K; 101.33 kPa; Liquid; Vibrating tube method

CCCC[N+]1(C)CCCC1.N#CN=C=[N-] [1-butyl-1-methylpyrrolidinium dicyanamide] + c1ccccc1 gave a mass density ([1]; x2 = 0.706) of 964.75 ± 6.2 kg/m3.
In the case of CCCCCCCCCC [decane], the mass density [2] is reported as 726.15 ± 2 kg/m3.
In the case of c1ccccc1 [benzene], the mass density [2] is reported as 873.71 ± 2 kg/m3.
Work on CCCC[N+]1(C)CCCC1.N#CN=C=[N-] [1-butyl-1-methylpyrrolidinium dicyanamide] yielded a mass density [2] of 1014.47 ± 6 kg/m3.
Molecule CCCCCCCC [octane] has a mass density [2] of 698.86 ± 2 kg/m3.
With CCCC[N+]1(C)CCCC1.N#CN=C=[N-] [1-butyl-1-methylpyrrolidinium dicyanamide] + CCCCCCCC the mass density ([1]; x2 = 0.01) was 1012.4 ± 6.1 kg/m3.
